The results in this text go back to patent US10604489B2, “Compounds for the treatment of pain” (priority 2018, dated 2020).

Molecules are shown by their SMILES. Structures can show the parent of a compound that is named as a salt.

One may read the EC50 as the concentration giving half of the maximal effect. As usually defined, the Ki is a dissociation constant, usually derived from enzyme kinetics or from competition with a known ligand. A low value points to higher affinity.

For assay [1], the target named is T1, human μ opioid receptor (Homo sapiens (Human), UniProt P35372). As to the kind of experiment: Alternate functional activity ([35S]GTPγS binding) assay, SPA beads. Format: biochemical. As to conditions: alternate assay: [35S]GTPγS 0.020 nM, CHO cell membranes with WGA PVT SPA beads. How it is done: The [^35S]GTPγS assay measures the functional properties of a compound by quantifying the level of G-protein activation following agonist binding in studies using stably transfected cells, and is considered to be a measure of the efficacy of a compound. Membranes from CHO (Chinese Hamster Ovary) cells that stably expressed one type of the cloned human opioid receptor human were used in the experiments. The assay buffer consisted of 50 mM Tris-HCl, pH 7.4, 3 mM MgCl2, 0.2 mM EGTA, 5 μM GDP, and 100 mM NaCl. CHO cell membranes stably expressing the human p opioid receptor were pre-incubated with scintillation proximity assay beads from PerkinElmer® (WGA PVT SPA) for 30 minutes, at 8 µg membrane and […] beads in a volume of 0.1 mL per reaction. In a final volume of 0.2 mL, 11 different concentrations of each test compound were incubated with the membrane-SPA bead mixture and a final concentration of 0.020 nM [35S]GTPγS for 1.5 hours with gentle shaking. Reactions were then incubated for 5 hours. Data are the mean EC50 values ±S.E.M. EC50 values (nM) for compounds 12, 16, 19, 20, 149, 151, 152, 157, 160, 161, 164-169, 172, 173, 180-197, and 199-207 are shown in Table 1.
A general note: Binding of GTPγS marks nucleotide exchange on a G protein.

The target of a further assay is μ-receptor (Homo sapiens (Human), UniProt P35372). The assay is described as follows: Receptor binding, competitive displacement of [3H]DAMGO. As to conditions: 0.25 nM [3H]DAMGO, CHO cell membrane protein, 60 min at 25° C. In a few lines:
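Ki derived via Cheng-Prusoff from IC50 (log-probit fit) of displacement of 0.25 nM [3H]DAMGO, 12 concentrations, from human μ-receptor in CHO cell membranes. Binding: 50 mM Tris-HCl pH 7.5, 25 °C, 60 min, 10 μM naloxone defining nonspecific, filter-bound radioactivity counted.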
Background: Loss of bound radioactivity is the signal in a displacement assay; it reports binding, not function.

Assay [2] addresses T1, human μ opioid receptor. The assay is described as follows: Functional activity ([35S]GTPγS binding). It is filed as biochemical. The conditions noted are these: [35S]GTPγS 0.080 nM, CHO cell membranes, 60 min at 30° C., filtration. In a few lines: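 Membranes from stably transfected CHO cells (7.5 μg) incubated with 12 test-compound concentrations and 0.080 nM [35S]GTPγS in 50 mM Tris-HCl pH 7.4, 3 mM MgCl2, 0.2 mM EGTA, 3 μM GDP, 100 mM NaCl, 60 min at 30° C. Nonspecific binding defined with 10 μM GTPγS; bound label collected by filtration and scintillation counting.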

Compound `CCOC1(c2cc(F)cc(C(N)=O)c2)C2CCCC1CNC2` (centres unmarked) [Compound 192] gave an EC50 at human μ opioid receptor [1] of 10 to 75 nM.
On human μ opioid receptor [1], `COC1(c2cccc(C(N)=O)c2)C2CCCC1CN(Cc1n[nH]c3cnccc13)C2` (centres unmarked) [Compound 191] showed an EC50 of 10 to 75 nM.
Still for that read-out and setting: to `COC1(c2cccc(C(N)=O)c2)C2CCCC1CN(C[C@@H]1C[C@H]3CC[C@@H](C1)O3)C2` (some centres unmarked) [Compound 167] belongs < 10 nM.
The compound `COC1(c2ccnc(C(N)=O)c2)C2CCCC1CN(C1CC3CCC(C1)O3)C2` (centres unmarked) [Compound 204] registered an EC50 on human μ opioid receptor [1] of 10 to 75 nM.
Turning to `CCOC1(c2cc(C(N)=O)ccc2F)C2CCCC1CNC2` (centres unmarked) [Compound 186], at human μ opioid receptor [1], the EC50 fell in the range of 10 to 75 nM.
As to `COC1(c2cc(C(N)=O)ccc2C)C2CCCC1CN(C)C2` (centres unmarked) [Compound 172], the EC50 on human μ opioid receptor [1] was > 75 nM.
Compound `COC1(c2ccnc(C(N)=O)c2)C2CCCC1CN(C[C@H]1CCCCO1)C2` (some centres unmarked) [Compound 168] gave an EC50 on human μ opioid receptor [1] of 10 to 75 nM.
Still for that read-out and setting: in the case of `COC1(c2cc(C(N)=O)ccc2F)C2CCCC1CN(C)C2` (centres unmarked) [Compound 173] it was 10 to 75 nM.
Still for that read-out and setting: in the case of `NC(=O)c1cccc(C2(OCC(F)(F)F)C3CCCC2CNC3)c1` (centres unmarked) [Compound 184] it was 10 to 75 nM.
On the same count and under the same terms, to `CCOC1(c2cc(C)cc(C(N)=O)c2)C2CCCC1CNC2` (centres unmarked) [Compound 193] belongs > 75 nM; to `COC1(c2ccnc(C(N)=O)c2)C2CCCC1CN([C@H](C)c1cnn[nH]1)C2` (some centres unmarked) [Compound 206], > 75 nM.
Compound `COC1(c2ccnc(C(N)=O)c2)C2CCCC1CN(C[C@H]1C[C@H]3CC[C@@H](C1)O3)C2` (some centres unmarked) [Compound 164] came in with an EC50 on human μ opioid receptor [1] of 10 to 75 nM.
In the case of `COC1(c2cccc(C(N)=O)c2)C2CCCC1CN([C@H](C)c1n[nH]c3cnccc13)C2` (some centres unmarked) [Compound 189], on human μ opioid receptor [1], the EC50 lay in the range of 10 to 75 nM.
With `COC1(c2cccc(C(N)=O)c2)C2CCCC1CN(C1CC3CCC(C1)O3)C2` (centres unmarked) [Compound 205], the EC50 on human μ opioid receptor [1] is < 10 nM.
`COC1(c2ccnc(C(N)=O)c2)C2CCCC1CN(C[C@@H]1CCCCO1)C2` (some centres unmarked) [Compound 169] displayed an EC50 on human μ opioid receptor [1] of 10 to 75 nM.
In the case of `CCOC1(c2cc(Cl)cc(C(N)=O)c2)C2CCCC1CNC2` (centres unmarked) [Compound 185], the concentration giving a half-maximal response (EC50) on human μ opioid receptor [1] is > 75 nM.
`COC1(c2cccc(C(N)=O)c2)C2CCCC1CNC2` [Compound 35, 3-((1R,5S,9r)-9-methoxy-3-azabicyclo[3.3.1]nonan-9-yl)benzamide hydrochloride]: at μ-receptor, the Ki is < 1 nM. This compound also displayed an EC50 on human μ opioid receptor [2] of 10 to 75 nM.
In the same order, the values of `COC1(c2cccc(C(N)=O)c2)C2CCCC1CN(C1CCOCC1)C2` [Compound 45, 3-((1R,5S,9r)-9-methoxy-3-(tetrahydro-2H-pyran-4-yl)-3-azabicyclo[3.3.1]nonan-9-yl)benzamide hydrochloride] are 1 to 5 nM and 10 to 75 nM.
For `COC1(c2cccc(C(N)=O)c2)C2CCCC1CN(C1CCC1)C2` [Compound 42, 3-((1R,5S,9r)-3-cyclobutyl-9-methoxy-3-azabicyclo[3.3.1]nonan-9-yl)benzamide hydrochloride], in that order: < 1 nM and < 10 nM.
For `CN1CC2CCCC(C1)C2(OCC(F)(F)F)c1cccc(C(N)=O)c1` [Compound 37, 3-((1R,5S,9r)-3-methyl-9-(2,2,2-trifluoroethoxy)-3-azabicyclo[3.3.1]nonan-9-yl)benzamide hydrochloride], in that order: 1 to 5 nM and 10 to 75 nM.
`COC1(c2ccnc(C(N)=O)c2)C2CCCC1CN([C@@H]1CC[C@H]1c1ccccc1)C2` (stereo partly drawn) [Compound 109, 4-((1R,5S,9R)-9-methoxy-3-((1R,2S)-2-phenylcyclobutyl)-3-azabicyclo[3.3.1]nonan-9-yl)picolinamide hydrochloride]: the Ki on μ-receptor is < 1 nM. Further, the EC50 on human μ opioid receptor [2] was < 10 nM.
On μ-receptor, `COC1(c2ccnc(C(N)=O)c2)C2CCCC1CN(Cc1cccnc1)C2` [Compound 68, 4-((1R,5S,9r)-9-methoxy-3-(pyridin-3-ylmethyl)-3-azabicyclo[3.3.1]nonan-9-yl)picolinamide dihydrochloride] had a Ki of 1 to 5 nM. For the same compound, the EC50 at human μ opioid receptor [2] lay in the range of 10 to 75 nM.
Regarding `COC1(c2ccnc(C(N)=O)c2)C2CCCC1CN(Cc1ncc[nH]1)C2` [Compound 99, 4-((1R,5S,9r)-3-((1H-imidazol-2-yl)methyl)-9-methoxy-3-azabicyclo[3.3.1]nonan-9-yl)picolinamide hydrochloride], the Ki at μ-receptor was in the range of 1 to 5 nM. The EC50 at human μ opioid receptor [2] lay in the range of 10 to 75 nM.
In the same order, the values of `COC1(c2ccnc(C(N)=O)c2)C2CCCC1CN(CC1(O)Cc3ccccc3C1)C2` [Compound 73, 4-((1R,5S,9r)-3-((2-hydroxy-2,3-dihydro-1H-inden-2-yl)methyl)-9-methoxy-3-azabicyclo[3.3.1]nonan-9-yl)picolinamide hydrochloride] are < 1 nM and < 10 nM.
In the same order, the values of `COC1(c2cccc(C(N)=O)c2)C2CCCC1CN(C1CC3(CCC3)C1)C2` [Compound 129, 3-((1R,5S,9r)-9-methoxy-3-(spiro[3.3]heptan-2-yl)-3-azabicyclo[3.3.1]nonan-9-yl)benzamide hydrochloride] are < 1 nM and < 10 nM.
For `COC1(c2ccnc(C(N)=O)c2)C2CCCC1CN(Cc1ccccn1)C2` [Compound 67, 4-((1R,5S,9r)-9-methoxy-3-(pyridin-2-ylmethyl)-3-azabicyclo[3.3.1]nonan-9-yl)picolinamide dihydrochloride], in that order: 1 to 5 nM and 10 to 75 nM.
In the case of `COC1(c2cccc(C(N)=O)c2)C2CCCC1CN(CC1COC1)C2` [Compound 51, 3-((1R,5S,9r)-9-methoxy-3-(oxetan-3-ylmethyl)-3-azabicyclo[3.3.1]nonan-9-yl)benzamide (S)-2-hydroxysuccinate], the Ki at μ-receptor was < 1 nM. At human μ opioid receptor [2], this compound showed a half-maximal effective concentration (EC50) of 10 to 75 nM.
In the same order, the values of `COC1(c2cccc(C(N)=O)c2)C2CCCC1CN([C@H]1C[C@@H]3[C@H](C1)C3(F)F)C2` (stereo partly drawn) [Compound 17, 3-((1R,5S,9R)-3-((1R,3r,5S)-6,6-difluorobicyclo[3.1.0]hexan-3-yl)-9-methoxy-3-azabicyclo[3.3.1]nonan-9-yl)benzamide hydrochloride] are < 1 nM and < 10 nM.
`COC1(c2ccnc(C(N)=O)c2)C2CCCC1CN(C(C)C)C2` [Compound 76, 4-((1R,5S,9r)-3-isopropyl-9-methoxy-3-azabicyclo[3.3.1]nonan-9-yl)picolinamide hydrochloride]: on μ-receptor, the Ki fell in the range of 1 to 5 nM. The same compound yielded an EC50 at human μ opioid receptor [2] of 10 to 75 nM.
The compound `CCC[C@@H](C)N1CC2CCCC(C1)C2(OC)c1ccnc(C(N)=O)c1` (single isomer, unassigned) [Compound 137, hydrochloride] returned a Ki on μ-receptor of 1 to 5 nM. For the same compound, at human μ opioid receptor [2], the concentration giving a half-maximal response (EC50) lay in the range of 10 to 75 nM.
In the same order, the values of `COC1(c2ccnc(C(N)=O)c2)C2CCCC1CN(Cc1ncco1)C2` [Compound 113, 4-((1R,5S,9r)-9-methoxy-3-(oxazol-2-ylmethyl)-3-azabicyclo[3.3.1]nonan-9-yl)picolinamide hydrochloride] are > 5 nM and > 75 nM.
Consider `COC1(c2ccnc(C(N)=O)c2)C2CCCC1CN([C@@H]1C[C@H]3C[C@H]3C1)C2` (stereo partly drawn) [Compound 93, 4-((1R,5S,9R)-3-((1R,3r,5S)-bicyclo[3.1.0]hexan-3-yl)-9-methoxy-3-azabicyclo[3.3.1]nonan-9-yl)picolinamide hydrochloride], for which the Ki at μ-receptor was 1 to 5 nM. On human μ opioid receptor [2], this compound displayed a half-maximal effective concentration (EC50) of 10 to 75 nM.
Regarding `COC1(c2ccnc(C(N)=O)c2)C2CCCC1CN(Cc1ccn[nH]1)C2` [Compound 100, 4-((1R,5S,9r)-3-((1H-pyrazol-5-yl)methyl)-9-methoxy-3-azabicyclo[3.3.1]nonan-9-yl)picolinamide hydrochloride], the Ki at μ-receptor was < 1 nM. Further, the EC50 on human μ opioid receptor [2] lay within 10 to 75 nM.
For the compound `COC1(c2ccnc(C(N)=O)c2)C2CCCC1CN(CC(C)C)C2` [Compound 92, 4-((1R,5S,9r)-3-isobutyl-9-methoxy-3-azabicyclo[3.3.1]nonan-9-yl)picolinamide hydrochloride], at μ-receptor, the Ki is > 5 nM. Moreover, the EC50 on human μ opioid receptor [2] was > 75 nM.
In the same order, the values of `COC1(c2ccc(C(N)=O)s2)C2CCCC1CN(C13CC(C1)C3)C2` [Compound 112, 5-((1R,5S,9r)-3-(bicyclo[1.1.1]pentan-1-yl)-9-methoxy-3-azabicyclo[3.3.1]nonan-9-yl)thiophene-2-carboxamide hydrochloride] are 1 to 5 nM and > 75 nM.
At μ-receptor, `COC1(c2ccnc(C(N)=O)c2)C2CCCC1CN(CCC1CC1)C2` [Compound 86, 4-((1R,5S,9r)-3-(2-cyclopropylethyl)-9-methoxy-3-azabicyclo[3.3.1]nonan-9-yl)picolinamide hydrochloride] had a Ki of 1 to 5 nM. Besides, the 50% effective concentration (EC50) at human μ opioid receptor [2] was 10 to 75 nM.
